Experimental findings from US20250235543A1, “MODIFIED PROTEINS AND PROTEIN DEGRADERS” (Cullgen (Shanghai), Inc., priority 2021, published 2025) are described below.

For one assay, the system named is P300/CBP. Nature of the assay: P300/CBP cellular protein degradation. The format is cell-based. As for the experimental part:
Cultured cells were washed with cold PBS once and lysed in cold RIPA buffer supplemented with protease inhibitors and phosphatase inhibitors (Beyotime Biotechnology). The solutions were then incubated at 4° C. for 30 min with gentle agitation to fully lysed cells. Cell lysates were centrifuged at 13,000 rpm for 10 min at 4° C. and pellets were discarded. Total protein concentrations in the lysates were determined following BCA assays (Beyotime Biotechnology). Cell lysates were mixed with Laemmli loading buffer and heated at 99° C. for 5 min. Proteins were resolved on SDS-PAGE and visualized using Western ECL Substrate kits on a ChemiDoc MP Imaging system (Bio-Rad). Protein bands were quantitated using the Image Lab software provided by Bio-Rad.

In another assay the target is T1, DDB1 (Homo sapiens, UniProt Q16531, D705G/DEL396-460/DEL463-701/I704S/T703N).
T1 construct: His6 (N, cleaved yes); TEV protease cleavage site (N, cleaved yes); made in house; host or cells: SF9 insect cells, Bac-to-Bac baculovirus, pFastBacHTB vector
Nature of the assay: SPR binding assay to immobilized DDB1ΔBPB. Conditions: binding affinities to DDB1. As to the method:
The binding affinities of heterobifunctional compounds to DDB1 were determined by SPR assay (FIG. 1A-1B). Purified DDB1ΔBPB proteins were immobilized on a CM5 sensor chip, and a dose range of compound solutions were injected in multi-cycle kinetic format. Data were fit to a steady state model to provide equivalent dissociation constants (Kd).
Human DDB1ΔBPB (UniProt: Q16531. BPB domain, aa 396 to 705, is replaced with a GNGNSG linker) coding sequences were cloned into pFastBacHTB vector and were expressed in SF9 cells using Bac-to-Bac baculovirus expression system (Thermo Fisher Scientific). The expression constructs include an N-terminal His6-tag to facilitate the purification, and a TEV protease cleavage site in between. DDB1ΔBPB proteins were obtained from supernatant of cell lysates and purified through sequential application of Ni affinity column (Ni-NTA column, Bio-Rad) and size-exclusion column (Superdex 200 16/600GL column, GE Healthcare) chromatography. Protein tags were cleaved off by TEV protease, and the resulting untagged proteins were further purified by Ni affinity column. Purified proteins were verified by immunoblotting, analytic SEC, and LC-MS.
SPR studies were performed on a Biacore X100 plus instrument (GE Healthcare). Immobilization of purified DDB1ΔBPB was carried out at 25° C. using a CM5 sensor chip. The surface was pre-equilibrated in HBS-EP running buffer (10 mM HEPES, pH7.4, 150 mM NaCl, 3 mM EDTA, 0.05% P20), before it was activated with EDC/NHS. DDB1ΔBPB proteins were immobilized by amine coupling to a density of 10,000-12,000 resonance units (RUs) on flow cell FC2, whereas flow cell FC1 was used as reference. Both protein immobilized and reference surfaces were deactivated with 1M ethanolamine. All interaction experiments were performed at 25° C. Test compounds were prepared and serially diluted in HBS-EP running buffer containing final 5% DMSO (6-point two-fold serial dilution, 100 μM-3.125 μM final concentration of compounds). Compound solutions were injected individually in multi-cycle kinetic format without regeneration (flow rate 30 μl/min, association time 120 s, dissociation time 120 s). Sensorgrams from reference surfaces and blank injections were subtracted from the raw data (double-referencing) and the data was solvent-corrected prior to analysis. All data were fit to steady state affinity model using Biacore Evaluation Software to provide equivalent dissociation constants (Kd).
(In general: SPR reads the build-up and loss of mass on a sensor chip optically.)

A further assay has as its system cyclin D1. Nature of the assay: Cyclin D1 percentage degradation in Calu-1 cells (immunoblotting). It is filed as cell-based. The settings on record: 16 hours. An outline of the steps: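 Cells were rinsed once in cold PBS and lysed in cold RIPA buffer containing protease and phosphatase inhibitors, with gentle agitation at 4° C. for 30 min. Lysates were spun at 13,000 rpm for 10 min at 4° C., protein was measured by BCA, and samples were boiled in Laemmli buffer at 99° C. for 5 min before SDS-PAGE immunoblotting.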

In the next assay the target is T2, CDK4 (Homo sapiens, UniProt P11802).
T2 construct: endogenous in cells; host or cells: Calu-1
Nature of the assay: CDK4 percentage degradation in Calu-1 cells (immunoblotting). The format is cell-based. Conditions: for inhibition at 0.2 µM: Calu-1 cells, 200 nM, 16 hours, read-out: CDK4 Degradation (200 nM). Put shortly: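 Cultured cells were rinsed once in cold PBS and lysed in cold RIPA buffer containing protease and phosphatase inhibitors, with gentle agitation at 4° C. for 30 min. Lysates were centrifuged at 13,000 rpm for 10 min at 4° C., and protein was quantified by BCA. Samples were then separated by SDS-PAGE, detected with ECL, and the CDK4 bands quantified in Image Lab.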
In general terms: Immunoblotting shows a protein as a band on a membrane.

T1 sequence (Q16531 other isoform, or with tags, fused parts or gaps DEL396-460/DEL463-701/T703N/I704S/D705G): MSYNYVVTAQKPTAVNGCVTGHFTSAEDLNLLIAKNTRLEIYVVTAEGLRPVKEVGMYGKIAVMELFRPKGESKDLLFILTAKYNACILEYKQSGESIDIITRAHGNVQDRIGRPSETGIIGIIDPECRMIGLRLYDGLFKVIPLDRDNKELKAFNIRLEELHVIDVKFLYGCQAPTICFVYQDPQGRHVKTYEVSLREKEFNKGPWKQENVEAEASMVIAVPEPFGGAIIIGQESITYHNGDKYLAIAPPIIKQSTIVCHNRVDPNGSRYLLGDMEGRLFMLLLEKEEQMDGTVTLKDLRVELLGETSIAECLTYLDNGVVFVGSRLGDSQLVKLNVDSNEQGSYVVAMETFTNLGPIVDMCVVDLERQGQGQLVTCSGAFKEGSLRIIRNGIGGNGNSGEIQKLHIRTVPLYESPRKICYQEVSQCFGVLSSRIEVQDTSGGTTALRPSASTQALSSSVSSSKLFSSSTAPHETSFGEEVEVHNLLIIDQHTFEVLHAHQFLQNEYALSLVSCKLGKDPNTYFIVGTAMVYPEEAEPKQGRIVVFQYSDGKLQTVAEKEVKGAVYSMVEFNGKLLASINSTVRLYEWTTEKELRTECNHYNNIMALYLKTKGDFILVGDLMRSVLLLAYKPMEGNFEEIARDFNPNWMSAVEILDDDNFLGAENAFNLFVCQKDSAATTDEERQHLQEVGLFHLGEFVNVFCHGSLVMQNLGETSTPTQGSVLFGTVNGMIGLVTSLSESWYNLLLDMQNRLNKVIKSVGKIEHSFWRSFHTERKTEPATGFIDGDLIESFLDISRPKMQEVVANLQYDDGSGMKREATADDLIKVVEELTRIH
T2 sequence (P11802 2-303 limits assumed): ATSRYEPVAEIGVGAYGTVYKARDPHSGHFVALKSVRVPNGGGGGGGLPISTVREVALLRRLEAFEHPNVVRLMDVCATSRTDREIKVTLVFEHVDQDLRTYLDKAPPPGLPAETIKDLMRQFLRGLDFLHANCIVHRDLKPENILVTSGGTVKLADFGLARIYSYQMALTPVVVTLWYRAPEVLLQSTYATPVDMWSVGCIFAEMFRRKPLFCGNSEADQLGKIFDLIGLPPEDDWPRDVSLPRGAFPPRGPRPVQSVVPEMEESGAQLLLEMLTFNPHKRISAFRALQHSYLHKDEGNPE
T2 sequence (P24385 whole entry partner): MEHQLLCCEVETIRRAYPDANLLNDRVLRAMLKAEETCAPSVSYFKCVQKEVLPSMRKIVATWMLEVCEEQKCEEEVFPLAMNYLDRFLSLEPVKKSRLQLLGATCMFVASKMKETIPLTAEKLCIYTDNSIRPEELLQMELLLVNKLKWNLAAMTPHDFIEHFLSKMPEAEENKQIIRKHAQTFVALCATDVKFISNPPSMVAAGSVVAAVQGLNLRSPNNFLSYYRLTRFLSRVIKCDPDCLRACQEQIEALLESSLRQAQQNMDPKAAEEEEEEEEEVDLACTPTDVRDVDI
T2 sequence (Q16531 2-1140 limits assumed, further chain): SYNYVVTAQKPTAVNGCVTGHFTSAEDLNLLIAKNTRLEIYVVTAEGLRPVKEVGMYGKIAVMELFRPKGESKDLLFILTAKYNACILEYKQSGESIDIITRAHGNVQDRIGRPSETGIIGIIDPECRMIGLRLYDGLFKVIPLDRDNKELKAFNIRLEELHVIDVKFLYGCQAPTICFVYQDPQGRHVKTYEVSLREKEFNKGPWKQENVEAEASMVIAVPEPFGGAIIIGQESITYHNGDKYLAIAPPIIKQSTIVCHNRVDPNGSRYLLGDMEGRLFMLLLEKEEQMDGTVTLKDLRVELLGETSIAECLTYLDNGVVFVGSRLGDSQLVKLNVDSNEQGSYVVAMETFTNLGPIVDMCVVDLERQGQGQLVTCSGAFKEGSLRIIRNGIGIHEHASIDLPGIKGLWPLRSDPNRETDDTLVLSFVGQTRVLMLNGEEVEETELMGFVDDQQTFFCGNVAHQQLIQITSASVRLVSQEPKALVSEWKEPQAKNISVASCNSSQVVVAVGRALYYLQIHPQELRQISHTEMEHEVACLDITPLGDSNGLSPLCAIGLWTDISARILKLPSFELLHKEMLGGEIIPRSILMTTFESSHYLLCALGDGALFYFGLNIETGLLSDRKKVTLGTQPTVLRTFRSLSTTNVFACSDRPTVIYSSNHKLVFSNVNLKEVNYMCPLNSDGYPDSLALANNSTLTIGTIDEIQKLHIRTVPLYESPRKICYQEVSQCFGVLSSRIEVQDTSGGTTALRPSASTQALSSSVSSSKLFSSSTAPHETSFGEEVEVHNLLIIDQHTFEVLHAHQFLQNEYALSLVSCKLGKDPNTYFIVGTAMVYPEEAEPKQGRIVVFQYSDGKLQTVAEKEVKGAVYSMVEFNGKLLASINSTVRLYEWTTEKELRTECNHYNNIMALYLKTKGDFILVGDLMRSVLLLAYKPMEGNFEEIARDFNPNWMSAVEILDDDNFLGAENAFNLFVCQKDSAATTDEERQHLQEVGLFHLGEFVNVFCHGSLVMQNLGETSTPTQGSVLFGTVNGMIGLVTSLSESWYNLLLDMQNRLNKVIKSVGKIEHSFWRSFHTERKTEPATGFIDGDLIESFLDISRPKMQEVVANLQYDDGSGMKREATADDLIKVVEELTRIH

For `CC(=O)N1CCc2c(c(N3CCCc4cc(-c5cnn(C)c5)c(C(F)F)cc43)nn2C2CCN(CC(=O)NCCCCCCNc3ccc(C(=O)Nc4ncc(C)s4)c(C)c3)CC2)C1` [CPD-193, 4-((6-(2-(4-(A-Acetyl-3-(7-(difluoromethyl)-6-(1-methyl-1H-pyrazol-4-yl)-3,4-dihydroquinolin-1(2H)-yl)-4,5,6,7-tetrahydro-1H-pyrazolo[4,3-c]pyridin-1-yl)piperidin-1-yl)acetamido)hexyl)amino)-2-methyl-N-(5-methylthiazol-2-yl)benzamide], in the assay on P300/CBP, the “P300/CBP Degradation (100 nM)” value is listed as “D (degradation activity < 30%)”.

In the case of `CC(=O)N1CCc2c(c(N3CCCc4cc(-c5cnn(C)c5)c(C(F)F)cc43)nn2C2CCN(CC(=O)NCCCCC(=O)Nc3ccccc3C(=O)Nc3nc(C)c([N+](=O)[O-])s3)CC2)C1` [CPD-212, 2-(5-(2-(4-(5-Acetyl-3-(7-(difluoromethyl)-6-(1-methyl-1H-pyrazol-4-yl)-3,4-dihydroquinolin-1(2H)-yl)-4,5,6,7-tetrahydro-1H-pyrazolo[4,3-c]pyridin-1-yl)piperidin-1-yl)acetamido)pentanamido)-N-(4-methyl-5-nitrothiazol-2-yl)benzamide], the “P300/CBP Degradation (100 nM)” value with P300/CBP is recorded as “D (degradation activity < 30%)”. On the same count and under the same terms, under `CC(=O)N1CCc2c(c(N3CCCc4cc(-c5cnn(C)c5)c(C(F)F)cc43)nn2C2CCN(C(=O)CCCC(=O)Nc3ccccc3C(=O)Nc3nc(C)c([N+](=O)[O-])s3)CC2)C1` [CPD-200, 2-(5-(4-(5-Acetyl-3-(7-(difluoromethyl)-6-(1-methyl-1H-pyrazol-4-yl)-3,4-dihydroquinolin-1(2H)-yl)-4,5,6,7-tetrahydro-1H-pyrazolo[4,3-c]pyridin-1-yl)piperidin-1-yl)-5-oxopentanamido)-N-(4-methyl-5-nitrothiazol-2-yl)benzamide] stands “D (degradation activity < 30%)”. On to `CC(=O)N1CCc2c(c(N3CCCc4cc(-c5cnn(C)c5)c(C(F)F)cc43)nn2C2CCN(C(=O)CCCCC(=O)Nc3ccccc3C(=O)Nc3nc(C)c([N+](=O)[O-])s3)CC2)C1` [CPD-201, 2-(6-(4-(5-Acetyl-3-(7-(difluoromethyl)-6-(1-methyl-1H-pyrazol-4-yl)-3,4-dihydroquinolin-1(2H)-yl)-4,5,6,7-tetrahydro-1H-pyrazolo[4,3-c]pyridin-1-yl)piperidin-1-yl)-6-oxohexanamido)-N-(4-methyl-5-nitrothiazol-2-yl)benzamide], for which the “P300/CBP Degradation (100 nM)” value in the assay with P300/CBP was “D (degradation activity < 30%)”.

In the case of `CC(=O)N1CCc2c(c(N3CCCc4cc(-c5cnn(C)c5)c(C(F)F)cc43)nn2C2CCN(C(=O)CCC(=O)Nc3ccccc3C(=O)Nc3nc(C)c([N+](=O)[O-])s3)CC2)C1` [CPD-199, 2-(4-(4-(5-Acetyl-3-(7-(difluoromethyl)-6-(1-methyl-1H-pyrazol-4-yl)-3,4-dihydroquinolin-1(2H)-yl)-4,5,6,7-tetrahydro-1H-pyrazolo[4,3-c]pyridin-1-yl)piperidin-1-yl)-4-oxobutanamido)-N-(4-methyl-5-nitrothiazol-2-yl)benzamide], the “P300/CBP Degradation (100 nM)” value in the assay on P300/CBP is listed as “D (degradation activity < 30%)”.

Consider `CC(=O)N1CCc2c(c(N3CCCc4cc(-c5cnn(C)c5)c(C(F)F)cc43)nn2C2CCN(CC(=O)NCCCCCCCCCCC(=O)Nc3ccccc3C(=O)Nc3nc(C)c([N+](=O)[O-])s3)CC2)C1` [CPD-218, 2-(11-(2-(4-(5-Acetyl-3-(7-(difluoromethyl)-6-(1-methyl-1H-pyrazol-4-yl)-3,4-dihydroquinolin-1(2H)-yl)-4,5,6,7-tetrahydro-1H-pyrazolo[4,3-c]pyridin-1-yl)piperidin-1-yl)acetamido)undecanamido)-N-(4-methyl-5-nitrothiazol-2-yl)benzamide], for which the “P300/CBP Degradation (100 nM)” value in the assay on P300/CBP is listed as “D (degradation activity < 30%)”. A word on the Kd: it is the constant that tells how readily two partners part at equilibrium. A higher Kd goes with lower affinity. `CC(=O)c1c(C)c2cnc(Nc3ccc(N4CCN(CC(=O)NCCOCCOCCOCCC(=O)Nc5ccccc5C(=O)Nc5nc(C)c(C)s5)CC4)cn3)nc2n(C2CCCC2)c1=O` [CPD-114, 2-(1-(4-(6-((6-Acetyl-8-cyclopentyl-5-methyl-7-oxo-7,8-dihydropyrido[2,3-d]pyrimidin-2-yl)amino)pyridin-3-yl)piperazin-1-yl)-2-oxo-6,9,12-trioxa-3-azapentadecan-15-amido)-N-(4,5-dimethylthiazol-2-yl)benzamide] showed a Kd at DDB1 of less than 20 µM. In addition, the “CyclinD1 Degradation (200 nM)” value in the assay with cyclin D1 is “A (protein percentage degradation >=80%)”. The inhibition at 0.2 µM at CDK4 is greater than 80%. Consider `COC(=O)c1nc(NC(=O)c2ccc(NCCOCCOCCOCCOCCOCCNC(=O)CN3CCN(c4ccc(Nc5ncc6c(C)c(C(C)=O)c(=O)n(C7CCCC7)c6n5)nc4)CC3)cc2C)sc1C` [CPD-033, Methyl 2-(4-((1-(4-(6-((6-acetyl-8-cyclopentyl-5-methyl-7-oxo-7,8-dihydropyrido[2,3-d]pyrimidin-2-yl)amino)pyridin-3-yl)piperazin-1-yl)-2-oxo-6,9,12,15,18-pentaoxa-3-azaicosan-20-yl)amino)-2-methylbenzamido)-5-methylthiazole-4-carboxylate], for which the Kd on DDB1 is less than 20 µM. In addition, the “CyclinD1 Degradation (200 nM)” value in the assay with cyclin D1 is given as “A (protein percentage degradation >=80%)”. In addition, the inhibition at 0.2 µM on CDK4 was greater than 80%.

As to `CC(=O)c1c(C)c2cnc(Nc3ccc(N4CCN(CC(=O)NCCOCCOCCC(=O)Nc5ccccc5C(=O)Nc5nc(C)c(C)s5)CC4)cn3)nc2n(C2CCCC2)c1=O` [CPD-115, 2-(3-(2-(2-(2-(4-(6-((6-Acetyl-8-cyclopentyl-5-methyl-7-oxo-7,8-dihydropyrido[2,3-d]pyrimidin-2-yl)amino)pyridin-3-yl)piperazin-1-yl)acetamido)ethoxy)ethoxy)propanamido)-N-(4,5-dimethylthiazol-2-yl)benzamide], at DDB1, the Kd is less than 20 µM. Moreover, the “CyclinD1 Degradation (200 nM)” value in the assay with cyclin D1 is reported as “A (protein percentage degradation >=80%)”. Also, on CDK4, the inhibition at 0.2 µM is greater than 80%. At DDB1, `Cc1cnc(NC(=O)c2ccc(NCCOCCOCCOCCOCCOCCNC(=O)CN3CCN(c4ccc(Nc5ncc6cc7n(c6n5)C5(CCCCC5)CNC7=O)nc4)CC3)cc2C)s1` [CPD-022, 2-Methyl-N-(5-methylthiazol-2-yl)-4-((2-oxo-1-(4-(6-((6′-oxo-7′,8′-dihydro-6′H-spiro[cyclohexane-1,9′-pyrazino[1′,2′:1,5]pyrrolo[2,3-d]pyrimidin]-2′-yl)amino)pyridin-3-yl)piperazin-1-yl)-6,9,12,15,18-pentaoxa-3-azaicosan-20-yl)amino)benzamide] displayed a Kd of less than 20 µM. For the same molecule, the “CyclinD1 Degradation (10 μM)” value in the assay with cyclin D1 (10 μM) is given as “A (protein percentage degradation >= 80%)”. In addition, the inhibition at 10 µM on CDK4 (Calu-1, 16 h, read-out: CDK4 Degradation (10 μM)) was greater than 80%.

Regarding `CC(=O)c1c(C)c2cnc(Nc3ccc(N4CCN(CC(=O)NCCOCCOCCOCCOCCOCCNc5ccc(C(=O)Nc6nc(C7CC7)c(C)s6)c(C)c5)CC4)cn3)nc2n(C2CCCC2)c1=O` [CPD-046, 4-((1-(4-(6-((6-Acetyl-8-cyclopentyl-5-methyl-7-oxo-7,8-dihydropyrido[2,3-d]pyrimidin-2-yl)amino)pyridin-3-yl)piperazin-1-yl)-2-oxo-6,9,12,15,18-pentaoxa-3-azaicosan-20-yl)amino)-N-(4-cyclopropyl-5-methylthiazol-2-yl)-2-methylbenzamide], the Kd on DDB1 was less than 20 µM. For the same molecule, in the assay on cyclin D1, the “CyclinD1 Degradation (200 nM)” value is “A (protein percentage degradation >=80%)”. Moreover, the inhibition at 0.2 µM at CDK4 is greater than 80%.
